Reference: US11925643B2, “Toll-like receptor 4 (TLR4) inhibitors and use thereof” (MOR RESEARCH APPLICATIONS LTD., priority 2018, dated 2024)
No end group written: not given here.

Legend:
TLR4 mRNA = TLR4 mRNA level by RT-qPCR in hypoxic cardiomyocytes; format: cell-based; conditions: hypoxic conditions
Procedure: (§1) Real-time RT-PCR experiments were performed in duplicates on an ABI 7900 instrument (Applied Biosystems™) using Taqman™ Master Mix (Applied Biosystems™). The average threshold cycles (Ct) of the duplicates were used to calculate the relative expression levels of the following genes: TLR4 (Applied Biosystems™ assay primer ID: Mm00569848_m1 Tlr4), TLR2 (assay primer ID: Mm01769726_m1 Tlr2), TNF-α (assay primer ID: Mm00443260_g1 Tnf) and IL-1β (assay primer ID: Mm00434228_m1 II1b) in vitro and in vivo following hypoxia or ischemia, respectively. The reference gene was TBP and the primer used was derived from mouse TATA-box binding protein (Applied Biosystems™ assay primer ID: Mm00446973_m1 Tbp). Amounts of TLR2, TLR4, TNF-α and IL-1β mRNAs in each sample were calculated relative to TBP mRNA, based on the corresponding Cts, as Relative Quantity (RQ) values, and normalized taking as 1 a randomly selected sample of the control group (TBP mRNA). Calculation were performed using the Applied Biosystems Analysis™ software (StepOnePlus V2.2.2). All mRNA scores are presented in arbitrary units.
Next, peptidomimetics of SEQ ID NOs:1 and 2 were tested for their ability to affect the expression of TLR4. The level of TLR4 mRNA was measured by real-time reverse transcriptase polymerase chain reaction (RT-qPCR) method as described in Materials and Methods. The possible effect of both compounds on expression levels of TLR2 mRNA was used as a negative control.

primary cardiomyocytes [1] = assay: CK and LDH release by primary cardiomyocytes under hypoxia (MI like); format: cell-based, Rat; conditions: 20 μM
Procedure: (§2) Rat hearts (1-2 days old) were removed under sterile conditions and washed three times in phosphate-buffered saline (PBS) to remove excess blood cells. The hearts were minced and then gently agitated in RBD (a solution of proteolytic enzymes (Biological Institute, Ness-Ziona, Israel) prepared from fig tree extract, and diluted 1:100 in Ca^2+- and Mg^2+-free PBS) for a few cycles of 10 min each. Dulbecco's modified Eagle's medium (Biological Industries, Kibbutz Beit Haemek, Israel) containing 10% horse serum was added to supernatant suspensions containing the dissociated cells. The mixture was centrifuged at 1400 rpm for 4 min. The supernatant phase was discarded, and the cells were re-suspended. The cell suspension was diluted to 1.0×10^6 cells/ml, unless stated otherwise, and 1.5 ml of the suspension was placed in 35-mm plastic culture dishes collagen- or gelatin-coated, or on coated cover glasses. The cultures were incubated in a humidified atmosphere of 5% CO2 and 95% air at 37° C.
Using a vacuum pump, the oxygen rich air was evacuated from an incubator containing plates with cell cultures, and a 100% Argon atmosphere was let in, while maintaining a temperature of 37° C. The cell cultures were washed with PBS twice to remove glucose from the medium. Hypoxic treated cells were cultures in PBS without glucose. These cells lasted for 180 minutes.
(§3) Primary cardiomyocytes which were obtained by method described above, were treated with exemplary decoy peptides described herein. After 30 minutes of incubation, sepsis like (LPS treatment for 6 hours), or myocardial infarction (MI) like (hypoxia for 3 hours) conditions were imposed to measure the release of CK and LDH to the medium and determine the potential cardioprotective effect of the tested decoy peptides. Cytotoxicity and level of cell damage were assessed by spectrophotometric measurement of lactate dehydrogenase (LDH) and creatine kinase (CK) activities (at 30° C.). Results are presented as CK and LDH release in arbitrary units (a.u.)
(§4) Activity of LDH and CK was determined in the cell-culture medium (25 μl) transferred into 96-well plates, using commercial L-LDH/CK kits (such as those manufactured, e.g., by Sigma-Aldrich, BioVision™ or Thermo Fisher Scientific®).
(§5) Primary cardiomyocytes were treated with peptides and peptidomimetics of SEQ ID NOs:1-7 provided at concentrations ranging from 1 μM to 20 μM. Following 30 minutes of incubation, sepsis like (LPS treatment for 6 hours) or MI like (hypoxia for 3 hours) conditions were induced to determine the potential cardioprotective effect of the tested compounds. Creatine kinase (CK) and lactate dehydrogenase (LDH) activity were assayed to determine the level of cellular damage and cell protection effect. The experimental procedure is described in Materials and Methods above. Results are presented as CK and LDH release in arbitrary units (a.u.).

primary cardiomyocytes [2] = assay: CK and LDH release by primary cardiomyocytes under LPS treatment (sepsis like); format: cell-based, Rat; conditions: LPS treatment; 20 μM
Procedure: as §2, §3, §4, §5

IL-1β mRNA = IL-1β mRNA level by RT-qPCR in hypoxic cardiomyocytes; format: cell-based; conditions: hypoxic conditions
Procedure: as §1, with “Calculation were performed using the Applied Biosystems Analysis™ software (StepOnePlus V2.2.2). All mRNA scores are presented in arbitrary units.” left out
Decoy peptides represented by compounds PM1-PM10 were tested in vitro for their ability to decrease the level of CK and LDH released by stressed cardiomyocytes following exposure to LPS or hypoxic stimulation, and further evaluated for their ability to affect the level of IL-1β and TLR4 mRNA, and expression of IκB and TLR4 proteins, according to the protocols described in Materials and Methods and in Example 5 herein above.

[3] = tested on: TLR4-driven inflammatory response; conditions: mice, cited from earlier work
TLR4 signaling = conditions: primary murine macrophages; cited from earlier work

Compound	inhibition of TLR4 mRNA production (TLR4 mRNA) [fold]	CK release (primary cardiomyocytes [1])	LDH release (primary cardiomyocytes [1])	CK release (primary cardiomyocytes [2])	LDH release (primary cardiomyocytes [2])	inhibition of IL-1β mRNA production (IL-1β mRNA) [fold]	LPS-induced activation of MyD88-dependent and TRIF-dependent cytokines and MAPKs [3]	survival ([3]; lethal LPS dose)	circulating cytokine levels ([3]; sublethal dose of LPS)	TLR4 signaling (TLR4 signaling)
Cc1cn(Cc2ccccc2)c(=O)nc1NCCC(C)C [PM2, 1-benzyl-4-(isopentylamino)-5-methylpyrimidin-2(1H)-one]	2	significant reduction	significant reduction	no significant effect	no significant effect	1.3				
IVFAEMPCG (Ac-IVFAEMPCG) [prior art decoy peptide derived from the TRAM TIR domain (Piao et al., 2013); used N-acetylated as positive control]							inhibited	dramatically improving	significantly diminishing	inhibited
